The source made the active and inactive calls.

One experiment deals with H9c2. Kind of experiment: cells. Type of experiment: functional, cell-based. The settings on record: Rattus norvegicus, H9c2, Myocardium.
Experiment [1] can be described thus: cells. The class given is functional, cell-based.
The nature of experiment [2]: cells. The class given is functional, cell-based. This is another data set of the same source.
Another experiment concerns the target Cytochrome P450 2D6 (Homo sapiens, UniProt P10635).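 Also: CYP2D6 member of a cytochrome P450 panel assay.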
The target of the next experiment is T1, Protein RecA (Mycobacterium tuberculosis, UniProt P9WHJ3).
T1 sequence (P9WHJ3 whole entry): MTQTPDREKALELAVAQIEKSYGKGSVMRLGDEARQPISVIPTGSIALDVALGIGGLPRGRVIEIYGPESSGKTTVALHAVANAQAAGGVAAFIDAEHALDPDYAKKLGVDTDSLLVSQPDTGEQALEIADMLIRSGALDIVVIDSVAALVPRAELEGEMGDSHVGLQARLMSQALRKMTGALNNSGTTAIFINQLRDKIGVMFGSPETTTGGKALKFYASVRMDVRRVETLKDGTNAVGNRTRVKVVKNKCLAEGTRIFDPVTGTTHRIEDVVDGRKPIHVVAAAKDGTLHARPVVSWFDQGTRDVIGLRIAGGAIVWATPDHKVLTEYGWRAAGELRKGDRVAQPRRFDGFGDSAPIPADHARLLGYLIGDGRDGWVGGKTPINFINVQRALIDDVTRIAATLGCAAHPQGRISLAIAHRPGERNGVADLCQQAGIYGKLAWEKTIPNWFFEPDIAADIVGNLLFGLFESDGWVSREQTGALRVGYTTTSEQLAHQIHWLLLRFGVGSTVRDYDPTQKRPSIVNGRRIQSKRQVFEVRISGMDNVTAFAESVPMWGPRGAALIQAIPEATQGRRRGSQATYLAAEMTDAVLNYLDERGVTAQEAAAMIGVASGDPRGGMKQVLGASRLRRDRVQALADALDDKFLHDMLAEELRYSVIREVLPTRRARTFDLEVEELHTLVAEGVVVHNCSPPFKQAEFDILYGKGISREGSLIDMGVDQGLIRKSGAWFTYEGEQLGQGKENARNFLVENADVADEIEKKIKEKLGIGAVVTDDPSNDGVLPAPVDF
In words: Fluorescence Cell-Free Homogeneous Dose Retest to Identify Inhibitors of RecA-Intein Splicing Activity. [Related pubchem assays (depositor defined):AID2097, AID2223, AID489010, AID492950]. The class given is functional.

Experiment [3] addresses T2, Replicative DNA helicase DnaB (Mycobacterium tuberculosis, UniProt P9WMR3).
T2 sequence (P9WMR3 whole entry): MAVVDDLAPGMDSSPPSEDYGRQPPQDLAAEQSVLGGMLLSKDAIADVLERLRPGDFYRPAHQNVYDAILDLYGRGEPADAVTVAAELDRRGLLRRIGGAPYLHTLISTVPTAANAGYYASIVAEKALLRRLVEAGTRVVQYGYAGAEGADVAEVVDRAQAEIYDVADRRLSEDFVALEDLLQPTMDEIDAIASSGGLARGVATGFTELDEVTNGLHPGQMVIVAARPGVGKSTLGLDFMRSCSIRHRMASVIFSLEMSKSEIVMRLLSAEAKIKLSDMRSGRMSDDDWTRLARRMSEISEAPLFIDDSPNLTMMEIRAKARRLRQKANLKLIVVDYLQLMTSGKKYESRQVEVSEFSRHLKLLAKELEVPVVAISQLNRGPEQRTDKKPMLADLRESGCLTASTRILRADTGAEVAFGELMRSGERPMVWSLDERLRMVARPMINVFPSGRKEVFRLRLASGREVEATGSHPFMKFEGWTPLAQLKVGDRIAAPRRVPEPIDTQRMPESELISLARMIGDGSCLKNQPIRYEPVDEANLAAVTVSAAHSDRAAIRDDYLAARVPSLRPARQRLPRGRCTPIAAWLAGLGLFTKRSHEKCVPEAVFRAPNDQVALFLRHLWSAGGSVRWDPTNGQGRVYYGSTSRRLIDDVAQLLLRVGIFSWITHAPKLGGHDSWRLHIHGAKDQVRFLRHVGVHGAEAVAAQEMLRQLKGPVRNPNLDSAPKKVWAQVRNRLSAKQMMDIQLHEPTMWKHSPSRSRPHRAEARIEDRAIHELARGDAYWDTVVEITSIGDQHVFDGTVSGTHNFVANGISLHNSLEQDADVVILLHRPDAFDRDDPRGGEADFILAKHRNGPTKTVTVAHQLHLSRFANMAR
Kind of experiment: DnaB intein splicing inhibitors, dose response, biochemical, cell-free fluorescence (AID 449749). The class given is functional.

The next experiment concerns the target Cytochrome P450 3A4 (Homo sapiens, UniProt P08684).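 Also: CYP3A4 tested as one member of a cytochrome P450 panel screen.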
The next experiment relates to Vero. In words: cells. The class given is functional. The settings on record: Chlorocebus sabaeus.
For another experiment, the target named is T3, Streptokinase A (Streptococcus pyogenes serotype M1, UniProt P10520).
T3 sequence (P10520 whole entry): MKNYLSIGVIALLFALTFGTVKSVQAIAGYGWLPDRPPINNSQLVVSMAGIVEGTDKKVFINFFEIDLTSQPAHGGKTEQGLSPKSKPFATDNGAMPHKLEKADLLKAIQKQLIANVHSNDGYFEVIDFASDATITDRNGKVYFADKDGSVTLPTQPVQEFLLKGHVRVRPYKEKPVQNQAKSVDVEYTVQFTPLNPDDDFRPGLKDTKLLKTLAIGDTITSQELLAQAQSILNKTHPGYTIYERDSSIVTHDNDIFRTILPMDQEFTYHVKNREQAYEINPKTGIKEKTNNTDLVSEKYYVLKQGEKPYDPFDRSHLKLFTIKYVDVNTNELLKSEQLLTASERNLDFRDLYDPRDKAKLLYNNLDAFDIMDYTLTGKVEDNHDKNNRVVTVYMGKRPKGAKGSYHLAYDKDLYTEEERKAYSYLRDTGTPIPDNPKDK
Kind of experiment: S. pyogenes streptokinase expression inhibitors, potency, dose response, plasminogen activation absorbance, OD405 (AID 1914).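 Also: secreted streptokinase activity via plasminogen activation per viability signal from cell pellet.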 Type of experiment: functional, Streptococcus pyogenes M1 GAS.

The subject of experiment [4] is Streptococcus sp. 'group A'. In words: growth inhibition of control SK(-) GAS strain, dose response, counter-screen for streptokinase expression inhibitor project, luminescence, kanamycin, BacTiterGlo, confirmation (AID 1900). Type of experiment: functional, organism-based. On the technique in general: A counterscreen serves to expose hits that act by an unwanted route or on another target.

Experiment [5] has as its target T4, Corticotropin-releasing factor receptor 2/Corticotropin-releasing factor-binding protein (Homo sapiens, UniProt P24387+Q13324).
T4 sequence (Q13324 whole entry): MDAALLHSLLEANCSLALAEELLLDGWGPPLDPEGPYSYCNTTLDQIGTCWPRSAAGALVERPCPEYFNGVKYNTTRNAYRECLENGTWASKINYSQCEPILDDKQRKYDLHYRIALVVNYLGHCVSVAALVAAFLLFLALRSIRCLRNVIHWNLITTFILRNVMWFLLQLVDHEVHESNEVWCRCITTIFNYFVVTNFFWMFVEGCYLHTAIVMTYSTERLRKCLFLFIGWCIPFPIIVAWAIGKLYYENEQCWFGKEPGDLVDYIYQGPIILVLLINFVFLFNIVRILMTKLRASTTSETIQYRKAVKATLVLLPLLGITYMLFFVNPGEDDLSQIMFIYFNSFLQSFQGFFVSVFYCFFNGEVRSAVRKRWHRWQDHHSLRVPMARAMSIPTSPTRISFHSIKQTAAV
T4 sequence (P24387 whole entry): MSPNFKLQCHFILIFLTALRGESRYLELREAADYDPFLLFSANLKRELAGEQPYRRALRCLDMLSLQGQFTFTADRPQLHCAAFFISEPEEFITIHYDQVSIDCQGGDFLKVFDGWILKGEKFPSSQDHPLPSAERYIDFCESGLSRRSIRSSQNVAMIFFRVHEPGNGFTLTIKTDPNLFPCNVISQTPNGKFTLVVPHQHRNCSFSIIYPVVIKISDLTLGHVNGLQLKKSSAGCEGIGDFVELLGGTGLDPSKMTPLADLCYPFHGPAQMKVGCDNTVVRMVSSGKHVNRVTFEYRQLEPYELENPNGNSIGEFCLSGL
In words: activators of CRF receptor 2 with binding protein – uHTS hits, confirmation (AID 602473). The class given is functional. Conditions: read-out: EC50_Mean.

The test system of another experiment is Streptococcus. In words: Group A Streptococcus viability loss, dose response, counter-screen for streptokinase expression inhibitor project, luminescence, BacTiterGlo (AID 1915).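 Also: potency for reduction of bacterial viability or growth.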 The class given is functional, organism-based.
For experiment [6], the target named is T4, Corticotropin-releasing factor receptor 2/Corticotropin-releasing factor-binding protein. Kind of experiment: Dose Response confirmation of uHTS hits for small molecule antagonists of the CRF-binding protein and CRF-R2 receptor complex. The class given is functional. The settings on record: read-out: IC50_Mean.
Experiment [7] concerns the target T5, Ubiquitin-conjugating enzyme E2 N (Homo sapiens, UniProt P61088).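 Also: Dose-response confirmation in a TR-FRET assay detecting UBC13-driven polyubiquitin chain formation, inhibition measured.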
T5 sequence (P61088 whole entry): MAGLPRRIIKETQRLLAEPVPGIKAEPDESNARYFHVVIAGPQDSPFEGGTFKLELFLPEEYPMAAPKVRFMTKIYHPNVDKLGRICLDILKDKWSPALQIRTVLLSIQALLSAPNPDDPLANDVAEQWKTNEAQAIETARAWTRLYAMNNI
Type of experiment: functional.

The next experiment deals with INS1. In words: beta cell apoptosis inhibitors, cytokine rescue, dose response, luminescence, retest (AID 449756).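 Also: cell death triggered by IL-1 beta plus TNF-alpha plus IFN-gamma mixture; protective hits raise ATP signal compared with cytokine alone wells.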 The settings on record: Rattus norvegicus. Type of experiment: functional, cell-based.
Experiment [8] in a line: microbe, parasite or virus in culture. Type of experiment: functional. The settings on record: Mycobacterium tuberculosis.

Chain of Cytochrome P450 2D6 (P10635 whole entry): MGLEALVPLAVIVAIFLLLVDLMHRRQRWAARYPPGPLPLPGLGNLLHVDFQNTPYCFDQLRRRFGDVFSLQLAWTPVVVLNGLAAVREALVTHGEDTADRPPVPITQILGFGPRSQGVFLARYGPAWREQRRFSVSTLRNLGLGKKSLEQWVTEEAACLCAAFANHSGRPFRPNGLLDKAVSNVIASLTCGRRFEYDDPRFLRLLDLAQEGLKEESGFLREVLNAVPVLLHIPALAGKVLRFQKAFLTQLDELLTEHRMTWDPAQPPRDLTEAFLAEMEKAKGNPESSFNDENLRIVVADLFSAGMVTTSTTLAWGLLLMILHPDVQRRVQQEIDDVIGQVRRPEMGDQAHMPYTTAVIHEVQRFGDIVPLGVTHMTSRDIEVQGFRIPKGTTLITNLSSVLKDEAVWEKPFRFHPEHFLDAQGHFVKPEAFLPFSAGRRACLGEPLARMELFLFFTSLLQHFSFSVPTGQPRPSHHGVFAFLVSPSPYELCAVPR
Chain of Cytochrome P450 3A4 (P08684 whole entry): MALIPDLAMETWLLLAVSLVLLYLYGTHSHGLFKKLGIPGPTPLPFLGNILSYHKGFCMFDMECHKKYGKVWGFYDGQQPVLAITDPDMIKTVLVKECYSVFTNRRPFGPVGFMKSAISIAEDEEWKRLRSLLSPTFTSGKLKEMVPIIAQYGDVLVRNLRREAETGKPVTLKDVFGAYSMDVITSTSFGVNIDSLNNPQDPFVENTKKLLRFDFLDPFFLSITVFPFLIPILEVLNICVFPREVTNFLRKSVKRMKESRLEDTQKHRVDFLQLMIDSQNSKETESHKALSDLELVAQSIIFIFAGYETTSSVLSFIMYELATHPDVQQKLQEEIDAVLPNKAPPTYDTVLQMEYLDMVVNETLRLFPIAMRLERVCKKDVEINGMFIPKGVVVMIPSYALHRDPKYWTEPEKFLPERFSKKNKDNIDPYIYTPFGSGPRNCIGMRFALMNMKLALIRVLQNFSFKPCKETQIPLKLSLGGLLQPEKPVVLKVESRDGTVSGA

On to `CN1CCN(Cc2nc(O)c3ccccc3n2)CC1`, for which the IC50 with H9c2 is 24 µM (active).

On to `O=C(CSc1nnc(Cc2cccs2)n1CCc1ccccc1)N1CCCc2ccccc21`, for which the IC50 in the experiment on H9c2 was > 79 µM (inactive).

For `NC(=O)c1nsc(C(=O)N(CCc2ccccc2)C(C(=O)NC2CCCC2)c2ccco2)c1N` (configuration not stated), the IC50 in the experiment on H9c2 is > 79 µM (inactive).

Turning to `COc1ccc(NC(=O)CNC(=O)Cc2cccc3ccccc23)c(OC)c1`, the EC50 in “cells [1]” and in the experiment “cells [2]” was > 350 µM (not active) throughout.

For the compound `CC(=O)N1CCC2(CCCN(c3ncccn3)C2)CC1`, the AC50 at Cytochrome P450 2D6 is 31.6 µM (inconclusive).

For the compound `COc1cc(SC)ccc1C(=O)Nc1ccc(C)cc1C`, the EC50 in the experiment “cells [1]” is 5.81 µM (active); in “cells [2]”, > 350 µM (not active).

For the compound `Cc1ccc(-n2nc(C)c3c2OC(N)=C(C#N)C3c2ccco2)cc1` (configuration not stated), the EC50 on Protein RecA was 6.22 µM (inconclusive). The concentration at half-maximal activity (AC50) in experiment [3] was 35.1 µM (inconclusive); on Cytochrome P450 3A4, 17.8 µM (inconclusive).

Take `CC(C)(C)NC(=O)COC(=O)c1ccc(Cl)nc1`: the EC50 in the experiment “cells [1]” and in the experiment “cells [2]” was > 350 µM (not active) throughout.

Turning to `N#Cc1ccc(CN2CCC3(CC2)CCN(C(=O)c2cccc(F)c2)CC3)cc1`, the AC50 at Cytochrome P450 2D6 is 12.6 µM (inconclusive).

For the compound `Cc1cc(C)cc(N(CC(=O)NCCSc2ccccn2)S(=O)(=O)c2ccccc2)c1`, the AC50 on Cytochrome P450 2D6 was 11.2 µM (inconclusive).

In the case of `COc1ccc(NC(=S)N2CCN(C(=O)c3ccccc3)CC2)cc1`, the EC50 in “cells [1]” and in the experiment “cells [2]” was > 350 µM (not active) each time.

With `Cc1ccc(N=Nc2ccc(O)c(P(=O)(c3ccccc3)c3ccccc3)c2)cc1`, the CC50 in the experiment on Vero was > 25 µM (active). Moreover, the EC50 on Streptokinase A was > 150 µM (not active); in experiment [4] it was 3.58 µM (active); in [5] it was > 53 µM (inactive); in the experiment with Streptococcus, 110 µM (active). In experiment [6], the IC50 was > 47.1 µM (inactive).

As for `O=C(CN1C(=O)S/C(=C\C=C\c2ccccc2)C1=O)Nc1ccc(C(=O)O)cc1`, the EC50 at Protein RecA is > 380 µM (inactive). Also, the AC50 in [3] is 177 µM (active).

For `CCOc1ccc(N(C(=O)c2snc(C(N)=O)c2N)C(C(=O)NC2CCCC2)C(C)C)cc1` (configuration not stated), in [7], the IC50 is > 20 µM (inactive).

For the compound `CCCNC(=O)c1c(N)n(-c2cccc(OC)c2)c2nc3ccccc3nc12`, in the experiment on INS1, the AC50 was 36.8 µM (active). In the experiment on H9c2, the IC50 was 28.5 µM (active).

On to `COc1cc2c(cc1OC)C1(Nc3c-2c(-c2ccccc2)nn3-c2ccccc2)C(=O)Nc2ccccc21` (configuration not stated), for which the CC50 in experiment [8] was 10.4 µM (active).

For the compound `Cn1ncc(Cl)c1C(=O)Nc1nc2ccc(Cl)cc2s1`, the results for the EC50 in the experiment “cells [1]” and in the experiment “cells [2]” were 0.85 µM (active) and > 350 µM (not active), respectively.

`COc1cc(C(c2c(C)n[nH]c2O)c2c(C)n[nH]c2O)cc(Cl)c1O`: the EC50 at Protein RecA is 0.453 µM (active). Also, the concentration at half-maximal activity (AC50) in [3] was 2.6 µM (active).

As for `C=CCn1c(Cc2cccs2)nnc1SCC(=O)Nc1ccc(C(=O)OCC)cc1`, the CC50 in experiment [8] was > 40 µM (active).

In the case of `O=C(CCc1nc(O)c2ccccc2n1)N1CCN(c2ccc(F)cc2)CC1`, the IC50 in the experiment on H9c2 is > 79 µM (inactive).

For the compound `Cc1cc(C)cc(C(=O)Nc2ccc(NC(=O)c3cccs3)cc2)c1`, the IC50 in the experiment with H9c2 is > 79 µM (inactive).

As to `O=C(C(=O)N1CCOCC1)c1cn(Cc2ccccc2)c2ccccc12`, in experiment [7], the IC50 is > 20 µM (inactive).

On to `Cc1nc2ccccc2c2c1C(=O)N(C)C2=O`, for which the EC50 on Protein RecA was 0.794 µM (active). Besides, the concentration at half-maximal activity (AC50) in experiment [3] is 4.71 µM (active).

With `CC(C)C1Nc2ccc(C(=O)N3CCN(c4ccccn4)CC3)cc2NC1=O` (configuration not stated), the IC50 with H9c2 was 21.2 µM (active).

In the case of `O=C(N/N=C/c1ccc2c(c1)OCO2)c1ccc(NC(=O)c2ccccc2Cl)cc1`, the IC50 in the experiment on H9c2 was 9.19 µM (active).

Regarding `Oc1c(Cl)cc(Cl)cc1/C=N/c1ccc(N2CCOCC2)cc1`, in the experiment with H9c2, the IC50 was > 79 µM (inactive).

The AC50 is the concentration giving half of the maximal activity seen.

Values taken from ChEMBL document CHEMBL1201862, “PubChem BioAssay data set” (2004).
